Assay results reported in patent US11382892B2, “Method for administration” (Hoffmann-La Roche Inc., priority 2012, dated 2022).
Where “and” joins values, the source holds several entries; their conditions need not be identical. Equal values may be shown once.

Tests used:
[1] = system: human osteosarcoma cancer xenograft model SJSA1; experiment: Survival / increase in life span in SJSA1 xenograft; assay type: in vivo, mice; conditions: for 50% Treatment Days (median survival): vehicle 26 days
Procedure: For survival assessment, the percent of increased life space (ILS) was calculated as: 100×[(median survival day of treated group−median survival day of control group)/median survival day of control group]. Median survival was determined utilizing Kaplan Meier survival analysis. Survival in treated groups was statistically compared with the vehicle group and survival comparisons were done between groups using the log-rank test (Graph Pad Prism, La Jolla, Calif., USA). Differences between groups were considered significant when the probability value (p) was ≤0:05.
All dose levels are reported as the actual dosage of Compound A rather than including drug plus polymer.
Female athymic Crl:NU-Foxn1nu mice (10/group), obtained from Charles River Laboratories (Wilmington, Del.) were utilized when they were approximately 10-12 weeks of age and weighed 23-25 g. The health of the mice was assessed daily by gross observation and analyses of blood samples taken from sentinel animals housed on shared shelf racks. All animals were allowed to acclimate and recover from any shipping-related stress for a minimum of 72 hours prior to experimental use. Autoclaved water and irradiated food (5058-ms Pico Lab mouse chow, Purina Mills, Richmond, Ind.) were provided ad libitum, and the animals were maintained on a 12 hour light and dark cycle. Cages, bedding and water bottles were autoclaved before use and changed weekly. All animal experiments were conducted in accordance with the Guide for the Care and Use of Laboratory Animals, local regulations, and protocols approved by the Roche Animal Care and Use Committee in an AAALAC accredited facility.
SJSA cells (ATCC) were maintained in RPMI 1640+10% (v/v) heat-inactivated FBS+i % (v/v) […] L-glutamine. Each mouse received 5×10^6 cells in a 1:1 mixture of phosphate buffered saline and Matrigel in a total volume of 0.2 ml. Cells were implanted subcutaneously in the right flank using a 1 cc syringe and a 26 gauge needle.
Treatment duration was 2-4 weeks. Dates of tumor implant, treatment initiation (study start date), and termination of treatment (study end date) can be found in Table 6 below. The starting tumor volume for this study was about 220 mm^3. Tumor volumes and animal body weights were measured three times per week and animals were monitored for clinical signs daily.

Ki-67 protein = experiment: Ki-67 IHC assay in patient tumor biopsies; assay type: in vivo, human; conditions: for Ki-67 IHC Average % CBL: cohort average; for Ki-67 IHC Median % CBL: cohort median; for Ki-67 IHC % CBL: individual patients, tumor biopsy vs baseline
Procedure: (§1) The 10 mg tablets contain hypromellose acetate succinate, mannitol, microcrystalline cellulose, croscarmellose sodium, colloidal silicon dioxide, and magnesium stearate. The film-coat consists of hypromellose, titanium dioxide, talc, triacetin, iron oxide yellow, and iron oxide red. The 50 mg, 200 mg, and 400 mg film coated tablets contain the excipients hypromellose acetate succinate, croscarmellose sodium, colloidal silicon dioxide, and magnesium stearate. The film-coat consists of polyvinyl alcohol, titanium dioxide, polyethylene glycol, talc, iron oxide yellow, iron oxide red, and iron oxide black.
Tumor biopsies were collected at baseline and cycle 1, day 5±2.
The Ki-67 protein is a cellular marker for proliferation. It is strictly associated with cell proliferation and can be measured in tissue sections via immunohistochemistry to determine degree of proliferation. Ki-67 protein is present during all active phases of the cell cycle (G1, S, G2, and mitosis), but is absent from resting cells (00).

tumor proliferation = experiment: FLT PET imaging of tumor proliferation in patients; assay type: in vivo, human; conditions: for FLT PET Average % CBL: cohort average; for FLT PET Median % CBL: cohort median; for FLT PET % CBL Cycle 1: individual patients
Procedure: as §1, with “black. […]” for “black.”
A negative percent change from baseline is indicative of an antiproliferative effect.

solid tumors = experiment: On-going Phase I studies in solid tumors; assay type: in vivo, human
Description: Thus, a 3-5 daily treatment schedule is expected to provide the best benefit ratio taking into consideration efficacy and toxicity.

[2] = 100 mg/kg QD po 2 on/12 off x 2
[3] = 200 mg/kg (two 100 mg/kg doses 8 hr apart) 1x/wk po

In the case of `COc1cc(C(=O)O)ccc1NC(=O)[C@@H]1N[C@@H](CC(C)(C)C)[C@](C#N)(c2ccc(Cl)cc2F)[C@H]1c1cccc(Cl)c1F` [Compound A, 4-{[(2R,3S,4R,5S)-4-(4-Chloro-2-fluoro-phenyl)-3-(3-chloro-2-fluoro-phenyl)-4-cyano-5-(2,2-dimethyl-propyl)-pyrrolidine-2-carbonyl]-amino}-3-methoxy-benzoic acid], the “% Increased Life Span (% ILS)” value ([1]; 7.5 mg/kg QD po) was 23%, the “50% Treatment Days (median survival)” value ([1]; 7.5 mg/kg QD po) was 32 days and the “% Increased Life Span (% ILS)” value ([1]; 15 mg/kg QD po) was 62%. The “50% Treatment Days (median survival)” value ([1]; 15 mg/kg QD po) was 42 days, the “% Increased Life Span (% ILS)” value ([1]; 20 mg/kg QD po 20 on/8 off) was 77% and the “50% Treatment Days (median survival)” value ([1]; 20 mg/kg QD po 20 on/8 off) was 46 days. For the same molecule, the “% Increased Life Span (% ILS)” value ([1]; 30 mg/kg QD po) was 127%, the “50% Treatment Days (median survival)” value ([1]; 30 mg/kg QD po) was 59 days and the “% Increased Life Span (% ILS)” value ([1]; 50 mg/kg 1x/wk po) was 23%. For the same molecule, the “50% Treatment Days (median survival)” value ([1]; 50 mg/kg 1x/wk po) was 32 days, the “% Increased Life Span (% ILS)” value ([1]; 50 mg/kg QD po 2 on/5 off x 4) was 119% and the “50% Treatment Days (median survival)” value ([1]; 50 mg/kg QD po 2 on/5 off x 4) was 57 days. For the same molecule, the “% Increased Life Span (% ILS)” value ([1]; 50 mg/kg QD po 4 on/10 off x 2) was 112%, the “50% Treatment Days (median survival)” value ([1]; 50 mg/kg QD po 4 on/10 off x 2) was 55 days and the “% Increased Life Span (% ILS)” value ([1]; 80 mg/kg QD po 5 on/23 off) was 127%. The “50% Treatment Days (median survival)” value ([1]; 80 mg/kg QD po 5 on/23 off) was 59 days, the “% Increased Life Span (% ILS)” value ([1]; 100 mg/kg 1x/wk po) was 77% and the “50% Treatment Days (median survival)” value ([1]; 100 mg/kg 1x/wk po) was 46 days. The “% Increased Life Span (% ILS)” value ([1]; 100 mg/kg QD po 2 on/5 off x 4) was 188%, the “50% Treatment Days (median survival)” value ([1]; 100 mg/kg QD po 2 on/5 off x 4) was 75 days and the “% Increased Life Span (% ILS)” value [1, 2] was 119%. For the same molecule, the “50% Treatment Days (median survival)” value [1, 2] was 57 days, the “% Increased Life Span (% ILS)” value [1, 3] was 162% and the “50% Treatment Days (median survival)” value [1, 3] was 68 days. For the same molecule, the “Ki-67 IHC Average % CBL” value (Ki-67 protein; BM-A1 800 mg bid Qwk × 3) was −8.5%, the “Ki-67 IHC Median % CBL” value (Ki-67 protein; BM-A1 800 mg bid Qwk × 3) was −8.5% and the “Ki-67 IHC % CBL” value (Ki-67 protein; BM-A1 800 mg bid Qwk × 3) was 14% and −31%. The “Ki-67 IHC Average % CBL” value (Ki-67 protein; BM-A2 1200 mg bid Qwk × 3) was −27.8%, the “Ki-67 IHC Median % CBL” value (Ki-67 protein; BM-A2 1200 mg bid Qwk × 3) was −33.0% and the “Ki-67 IHC % CBL” value (Ki-67 protein; BM-A2 1200 mg bid Qwk × 3) was −57% and 30% and −5% and −75% and −33%. The “Ki-67 IHC Average % CBL” value (Ki-67 protein; BM-B1 400 mg bid × 5 d) was −17.7%, the “Ki-67 IHC Median % CBL” value (Ki-67 protein; BM-B1 400 mg bid × 5 d) was −13.0% and the “Ki-67 IHC % CBL” value (Ki-67 protein; BM-B1 400 mg bid × 5 d) was −97% and −13% and 57%. The “Ki-67 IHC Average % CBL” value (Ki-67 protein; BM-B2 500 mg bid × 3 d) was −53.9%, the “Ki-67 IHC Median % CBL” value (Ki-67 protein; BM-B2 500 mg bid × 3 d) was −69.8% and the “Ki-67 IHC % CBL” value (Ki-67 protein; BM-B2 500 mg bid × 3 d) was 3% and −70% (2×) and −79%. For the same molecule, the “Ki-67 IHC Average % CBL” value (Ki-67 protein; BM-B3 500 mg qd × 5 d) was −57.1%, the “Ki-67 IHC Median % CBL” value (Ki-67 protein; BM-B3 500 mg qd × 5 d) was −66.5% and the “Ki-67 IHC % CBL” value (Ki-67 protein; BM-B3 500 mg qd × 5 d) was −67% and −96% and −8%. For the same molecule, the “tumor proliferation via Ki67” value (Ki-67 protein; doses and schedules of Table 9) was “Decrease levels of tumor proliferation”, the “FLT PET Average % CBL” value (tumor proliferation; BM-A1 800 mg bid Qwk × 3) was −17.0% and the “FLT PET Median % CBL” value (tumor proliferation; BM-A1 800 mg bid Qwk × 3) was −20.5%. For the same molecule, the “FLT PET % CBL Cycle 1” value (tumor proliferation; BM-A1 800 mg bid Qwk × 3) was −28.5% and −21.9% and −29.5% and 8.9% and −19.0% and −11.7%, the “FLT PET Average % CBL” value (tumor proliferation; BM-A2 1200 mg bid Qwk × 3) was −0.9% and the “FLT PET Median % CBL” value (tumor proliferation; BM-A2 1200 mg bid Qwk × 3) was 3.2%. The “FLT PET % CBL Cycle 1” value (tumor proliferation; BM-A2 1200 mg bid Qwk × 3) was −5.0% and 21.1% and −31.1% and 11.3% and −73.1%, the “FLT PET Average % CBL” value (tumor proliferation; BM-B1 400 mg bid × 5 d) was −43.4% and the “FLT PET Median % CBL” value (tumor proliferation; BM-B1 400 mg bid × 5 d) was −32.2%. For the same molecule, the “FLT PET % CBL Cycle 1” value (tumor proliferation; BM-B1 400 mg bid × 5 d) was −82.5% and −29.3% and −23.4% and −32.2%, the “FLT PET Average % CBL” value (tumor proliferation; BM-B2 500 mg bid × 3 d) was −39.2% and the “FLT PET Median % CBL” value (tumor proliferation; BM-B2 500 mg bid × 3 d) was −34.9%. For the same molecule, the “FLT PET % CBL Cycle 1” value (tumor proliferation; BM-B2 500 mg bid × 3 d) was −34.9% and −62.4% and −24.7% and −19.4% and −54.5%, the “FLT PET Average % CBL” value (tumor proliferation; BM-B3 500 mg qd × 5 d) was −29.04% and the “FLT PET Median % CBL” value (tumor proliferation; BM-B3 500 mg qd × 5 d) was −31.0%. For the same molecule, the “FLT PET % CBL Cycle 1” value (tumor proliferation; BM-B3 500 mg qd × 5 d) was −56.4% and −34.3% and −21.7% and −31% and −1.8%, the “antiproliferative effect by FLT PET” value (tumor proliferation; all doses tested, in particular 3 day and 5 day schedules) was “antiproliferative effects was seen in all doses tested” and the “toxicity of longer schedules” value (solid tumors; longer schedules) was “delayed thrombocytopenia”. The “continuous exposure after which maximal apoptosis occurs” value (solid tumors; solid tumors) was “about 48 hours”.
